{"source": "patent US20230172201A1", "about": "“Use of 4-Phenylbutyric Acid and/or 3-Phenylbutyric Acid and/or 2-Phenylbutyric Acid in Preventing and Treating Cryptogamic Diseases” (Institut National de Recherche Pour L'Agriculture, …, priority 2020, published 2023)", "system": "Botrytis cinerea (BMM strain)", "test": "Mycelial development in liquid medium, absorbance at 600 nm (nephelometry)", "assay_type": "cell-based", "details": "Botrytis cinerea, 96 h; 1 mM; incubation for 4 days; Example 4; read-out: degree of inhibition", "data": [{"smiles": "CCC(C(=O)O)c1ccccc1", "note": "(stereo not shown) [2-PBA, 2-Phenylbutyric acid]", "values": [{"measurement": "inhibition at 1000 µM", "value": "~70", "unit": "%"}]}]}
